Measured values reported in patent publication US4524070A, “Aminated derivatives of pyridazine substituted in 6 position by a heterocycle or an alicycle and compositions, said derivatives being active on the central nervous system” (Sanofi, priority 1983, dated 1985).

Tests used:
[1] = test system: ptosis induced by reserpine; experiment: Antagonism of ptosis induced by reserpine; format: in vivo, mouse (female CDI Charles River); settings: Mus musculus, ip, simultaneous with reserpine 2 mg/kg i.v.; read 1 hour after; batches of 10 mice
Method: Antagonism of ptosis induced by reserpine This test described by GOURET (Journal de Pharmacologie, Paris, 1973, 4 (1), 105-128) was carried out on the female CDI (Charles River) mouse weighing 20±1 g. Reserpine induces a ptosis 1 hour after its intravenous administration; certain antidepressants oppose this ptosis. The following protocol was chosen. The substances to be studied were administered i.p. The reserpine was administered simultaneously by the intravenous route at the dose of 2 mg/kg. 1 hour after administration of reserpine, the number of animals not presenting ptosis was noted. This test was carried out on batches of 10 mice and the percentage of animals not presenting ptosis was determined. The results are expressed in effective dose 50 (ED50) or dose preventing ptosis in 50% of the animals treated.

monoamine oxydase A = target: T1, monoamine oxydase A (Rattus norvegicus, UniProt P21396); experiment: Measurement of the MAO A activity in vitro; format: biochemical; settings: rat striatum, 14C 5-hydroxytryptamine 480 μM, pH 7.40, 10 minutes
T1 construct: using the striatum of rate as source of enzyme; from tissue; host or cells: rat striatum homogenate
T1 sequence (P21396 1-526): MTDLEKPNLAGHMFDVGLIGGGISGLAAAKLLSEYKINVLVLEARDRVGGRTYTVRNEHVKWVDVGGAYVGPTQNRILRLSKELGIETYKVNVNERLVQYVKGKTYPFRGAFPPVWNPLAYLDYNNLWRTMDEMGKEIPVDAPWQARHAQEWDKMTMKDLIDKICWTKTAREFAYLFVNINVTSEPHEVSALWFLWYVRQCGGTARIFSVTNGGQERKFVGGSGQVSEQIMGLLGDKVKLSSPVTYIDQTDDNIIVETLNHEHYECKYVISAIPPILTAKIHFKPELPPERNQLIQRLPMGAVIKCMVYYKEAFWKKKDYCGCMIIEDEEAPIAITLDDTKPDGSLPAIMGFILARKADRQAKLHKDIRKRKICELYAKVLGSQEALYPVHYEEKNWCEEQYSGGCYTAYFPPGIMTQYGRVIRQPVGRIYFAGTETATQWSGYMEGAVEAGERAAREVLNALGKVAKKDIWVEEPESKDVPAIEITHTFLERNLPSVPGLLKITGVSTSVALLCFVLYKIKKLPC
Method: Measurement of the MAO A activity in vitro
After dissection, the tissues are homogenized in 16 volumes (weight per volume) of iced phosphate buffer (0.1M, pH=7.40). […] The acid metabolites are extracted in 7 ml of a toluene/ethyl acetate (1:1, vol/vol) mixture then counted by liquid scintillation. The concentration of the product tested which inhibits the control activity by 50% (I.C.50) is determined graphically.

[2] = test system: central serotoninergic transmission; experiment: Potentialization of the head twitches induced by 5-hydroxytryptophane (5-HTP test); format: in vivo, mouse (female CDI Charles River); settings: 1 hour before 5-hydroxytryptophane 200 mg/kg i.p., % with respect to control mice
Method: Potentialization of the head twitches induced by 5-hydroxytryptophane
The 5-hydroxytryptophane, precursor of the 5-hydroxytryptamine, induces in the mouse typical behaviour characterized by sudden head twitches.
At time zero, the product to be studied is administered by the intraperitoneal route then, 1 hour afterwards, a single dose (200 mg/kg) of 1-5-hydroxytryptophane in suspension in distilled water is in turn administered by the same route. Each animal (female CDI Charles River mouse weighing from 22 to 24 g) is immediately placed in a cylindrical glass beaker. The number of head twitches is counted for 20 minutes.
For each dose of the product to be tested, batches of 10 animals are experimented on, in comparison with a control batch which receives only the vehicle.
The results are expressed in % with respect to the average score obtained in the control mice.

[3] = target: cholinergic receptors of muscarinic type; format: binding; settings: rat cerebra without cerebellum, 0.05 nM QNB (^3 H), 25° C., 1 hour, pH 7.4; read-out: Bond with QNB (^3 H) IC50
dopaminergic activity = experiment: Rotations test: behaviour of rotation after unilateral lesion of the striatum (dopaminergic activity); format: in vivo, mouse (female Charles River CDI); settings: 1 hour after administration, counted for 2 minutes
Method: This was studied by analysis of the behaviour of rotation in the mouse after unilateral lesion of the striatum (P. Protais et al., J. Pharmacol., 1976, 7, 251).
Female Charles River CDI mice weighing from 20 to 24 g were previously subjected to a unilateral lesion of the striatum by stereotaxic injection of 6-hydroxydopamine at the rate of 8 mcg per animal. One week after this operation, the products to be studied were administered by the intraperitoneal route to groups of 7 mice. 1 hour after administration of the product, the number of rotations is determined for a period of 2 minutes. The rotations ispilateral with respect to the lesion are counted positively and the contralateral rotations are counted negatively.
The algebraic sum of the rotations for a group of treated animals is compared with that of the group of control animals having received only the vehicle (physiological serum).
The results are expressed in % variation of the rotations of the treated animals with respect to the control animals.

[4] = dose 10 mg/kg i.p., result in words

`Cc1cc(-c2cccs2)nnc1NCCN1CCOCC1.Cl.Cl` [CM 30387, 3-morpholinoethylamino-4-methyl-6-(2-thienyl)pyridazine, dihydrochloride] was tested, and the ED50 [1] was 4.8 mg/kg, the “MAO A Inhibition IC50” value (monoamine oxydase A) was 10 mg/kg and the “5-HTP test % variation” value ([2]; dose 8 mg/kg i.p., **p 0.01) was 632%. For the same compound, the IC50 [3] was 24 µM and the “Rotations test % variation” value (dopaminergic activity; [4]) was “Inactive”.
`Cc1cc(-c2ccsc2)nnc1NCCN1CCOCC1.Cl.Cl` [CM 30388, 3-morpholinoethylamino-4-methyl-6-(3-thienyl)-pyridazine, dihydrochloride] was tested, and the ED50 [1] was 10.3 mg/kg, the “MAO A Inhibition IC50” value (monoamine oxydase A) was 7.8 mg/kg and the “5-HTP test % variation” value ([2]; dose 8 mg/kg i.p., **p 0.01) was 647%. For the same compound, the IC50 [3] was 18 µM and the “Rotations test % variation” value (dopaminergic activity; [4]) was “Inactive”.
With `Cc1cc(C2CCCCC2)nnc1NCCN1CCOCC1.Cl.Cl` [CM 30390, 3-morpholinoethylamino-4-methyl-6-cyclohexyl-pyridazine; dihydrochloride] the ED50 [1] was 4.5 mg/kg, the “5-HTP test % variation” value ([2]; dose 7.5 mg/kg i.p., *p 0.05) was 219% and the IC50 [3] was 14 µM. The “Rotations test % variation” value (dopaminergic activity; [4]) was “Inactive”.
With `Cc1cc(-c2ccccc2)nnc1NCCN1CCOCC1` [Minaprine, reference compound] the ED50 [1] was 5 mg/kg, the “MAO A Inhibition IC50” value (monoamine oxydase A) was 16 mg/kg and the “5-HTP test % variation” value ([2]; dose 10 mg/kg i.p., *p 0.05) was 257%. The IC50 [3] was 100 µM and the “Rotations test % variation” value (dopaminergic activity; dose 0.5 mg/kg i.p., vs control animals, **p 0.01) was -79%.
